Experimental data taken from patent US7087622B2, “Pyridone compounds as inhibitors of bacterial type III protein secreation systems” (priority 2004, dated 2006).

Key:
Type in all cases: cell-based
[1] = test system: SPI1 type III protein secretion system (SipB secretion); experiment: Secondary assay: Type III-dependent protein secretion of the SipB polypeptide by S. enterica (immunoblot); conditions: Salmonella enterica, read-out: SipB IC50(uM)
Description: Secondary assay: Type III-dependent protein secretion of the SipB polypeptide by S. enterica. The SipB protein of S. enterica is another effector of the SPI1 type III protein secretion system from S. enterica. In this cell-based procedure, the Type III-dependent secretion of SipB from the bacterial cytoplasm to the extracellular medium was measured through its reactivity with a cognate mouse monoclonal.
Salmonella enterica cells growing either in the presence or in the absence of inhibitors are induced for the production of SipB. Following an established period of growth the cells are sedimented and the amount of SipB present in the supernatant is quantified with a scanning imager following application of immunoblot techniques. Detection may employ an anti-SipB mouse monoclonal antibody (e.g., obtained from Jorge Galan, SUNY at Stony Brook, N.Y.) followed by treatment with commercially available sheep anti-mouse polyclonal antibody conjugated with horseradish peroxidase. Thereafter the membrane is treated with a peroxidase chemiluminescent substrate and exposed to film for an appropriate exposure time. Inhibition may be measured relative to untreated controls.

[2] = test system: type III protein secretion system of P. aeruginosa PA103 (ExoU secretion); experiment: Tertiary assay: Type III-dependent secretion of ExoU by P. aeruginosa PA103 (SDS-PAGE band quantitation); conditions: Pseudomonas aeruginosa, ExoU secreted into extracellular medium
Excerpt: Tertiary assay: inhibition of Type III protein secretion of effectors from a Pseudomonas aeruginosa system. Type III protein secretion is used by P. aeruginosa to secrete several essential virulence determinants. One effector of the type III protein secretion system of P. aeruginosa PA103 is the virulence determinants ExoU.
The amount of Type III-dependent secretion of ExoU by P. aeruginosa PA103 can be determined in a cell-based assay by quantification of the 73.9 kDa ExoU protein secreted into the extracellular medium. Such quantitation can be achieved by growing strain PA103 in a deferrated medium in the presence of nitrilotriacetic acid (an inducer of Type III protein secretion in P. aeruginosa) and either in the presence or absence of putative inhibitors. After a prolonged growth period, the cells are sedimented and the supernatants concentrated by ammonium sulfate precipitation. The proteins in the resuspended pellets are separated by electrophoresis on SDS-polyacrylamide gels. After staining gels with Colloidal Blue™, the 73.9 kDa ExoU band is quantitated by scanning through an imager. The effects of inhibitors on the intensity of the ExoU band may be measured relative to that of untreated controls.

[3] = test system: SPI1 type III protein secretion system (SopE-Bla secretion); experiment: Primary assay: Type III protein secretion of the chimeric SopE-Bla polypeptide by Salmonella enterica (nitrocefin hydrolysis); conditions: read-out: SopE IC50(uM)
Excerpt: Primary assay: Type III protein secretion of the chimeric SopÉ-Bla polypeptide by Salmonella enterica. This procedure is a cell-based assay that measures the type III-dependent secretion by Salmonella enterica of a plasmid-encoded chimeric polypeptide whose synthesis can be regulated, and which is endowed with an enzymatic activity that can be monitored calorimetrically by hydrolysis of a substrate that is unable to penetrate into the bacterial cytoplasm within the time constraints of the reaction. Thus, the colorimetric reaction is not influenced by SopÉ-Bla polypeptide in the bacterial cytoplasm. Instead, it effectively measures the amount of polypeptide that has been secreted from the S. enterica cytoplasm to the extracellular medium via type III system protein secretion.
The SopÉ-Bla recombinant polypeptide consists of two functionally distinct domains spliced together. The N-terminus domain is encoded by a polynucleotide region specifying the signal for type III secretion of the SopE polypeptide of S. enterica, an effector of the SPI1 type III protein secretion system. The C-terminus domain of SopÉ-Bla consists of a 263 amino acid peptide sequence that corresponds to the TEM-1 β-lactamase expressed by plasmid pBR322 but without its N-terminal signal sequence. The TEM-1 β-lactamase part of the SopÉ-Bla chimeric polypeptide is used as a reporter enzyme. It is capable of hydrolyzing nitrocefin resulting in a product whose accumulation can be monitored by colorimetric detection. The secretion of the SopÉ-Bla chimeric polypeptide from the cytoplasm to the extracellular medium is dependent on type III protein secretion.
For this procedure, cells grown under conditions known to favor a functional SPI1 secretion system are induced for expression of the SopÉ-Bla protein and grown either in the presence or in the absence of putative inhibitors for determined time. Nitrocefin is then added to the various cultures and its hydrolysis are used for quantitation. An inhibitor of Type III protein secretion is generally a compound that reduces the signal of the enzymatic reaction by decreasing the amount of SopÉ-Bla secreted into the extracellular medium.

Row | Compound | IC50 [1] [µM] | IC50 [2] [µM] | IC50 [3] [µM]
1 | O=C(Nc1cc(-c2ccc(Oc3ccccc3)cc2)cn([C@@H](Cc2ccccc2)C(=O)O)c1=O)c1ccc(C(F)(F)F)cc1 [Compound 4, (S)-2-[2-Oxo-5-(4-phenoxyphenyl)-3-(4-trifluoromethylbenzoylamino)-2H-pyridin-1-yl]-3-phenylpropionic acid] | 84.7 | 84.7 | 6.3
2 | O=C(Nc1cc(-c2ccc3ccccc3c2)cn(C(Cc2ccc(Cl)cc2)C(=O)O)c1=O)c1ccc(-c2ccccc2)cc1 (stereo not drawn) [Compound 42, 2-{3-[(Biphenyl-4-carbonyl)amino]-5-naphthalen-2-yl-2-oxo-2H-pyridin-1-yl}-3-(4-chlorophenyl)propionic acid] | 76.2 | 41.3 | 1.1
3 | O=C(Nc1cc(-c2ccoc2)cn(C(Cc2ccc(Cl)cc2)C(=O)O)c1=O)c1ccc(-c2ccccc2)cc1 (stereo not drawn) [Compound 45, 2-{3-[(Biphenyl-4-carbonyl)amino]-5-furan-3-yl-2-oxo-2H-pyridin-1-yl}-3-(4-chlorophenyl)propionic acid] | > 100 | 49.4 | 4
4 | O=C(Nc1cc(-c2cccc3c2sc2ccccc23)cn(C(Cc2ccc(Cl)cc2)C(=O)O)c1=O)c1ccc(C(F)(F)F)cc1 (stereo not drawn) [Compound 24, 3-(4-Chlorophenyl)-2-[5-dibenzothiophen-4-yl-2-oxo-3-(4-trifluoromethyl-benzoylamino)-2H-pyridin-1-yl]propionic acid] | 67.1 | 62.4 | 1.6
5 | O=C(Nc1cc(-c2ccc(Oc3ccccc3)cc2)cn(C(Cc2ccc(Cl)cc2)C(=O)O)c1=O)c1ccc(-c2ccccc2)cc1 (stereo not drawn) [Compound 48, 2-[3-[(Biphenyl-4-carbonyl)amino]-2-oxo-5-(4-phenoxyphenyl)-2H-pyridin-1-yl]-3-(4-chlorophenyl)propionic acid] | 35 | 33.2 | 1.2
6 | COC(=O)c1ccc(-c2cc(NC(=O)c3ccc(C(F)(F)F)cc3)c(=O)n([C@@H](Cc3ccccc3)C(=O)O)c2)cc1 [Compound 6, (S)-4-[1-(1-Carboxy-2-phenethyl)-6-oxo-5-(4-trifluoromethylbenzoylamino)-1,6-dihydro-pyridin-3-yl]benzoic acid methyl ester] | > 100 | > 100 | 53.6
7 | COc1ccc(-c2cc(NC(=O)c3ccc(-c4ccccc4)cc3)c(=O)n(C(Cc3ccc(Cl)cc3)C(=O)O)c2)cc1OC (stereo not drawn) [Compound 41, 2-[3-[(Biphenyl-4-carbonyl)amino]-5-(3,4-dimethoxyphenyl)-2-oxo-2H-pyridin-1-yl]-3-(4-chlorophenyl)propionic acid] | 15.9 | 67.4 | 3.2
8 | O=C(Nc1cc(-c2ccc3[nH]ccc3c2)cn(C(Cc2ccc(Cl)cc2)C(=O)O)c1=O)c1ccc(-c2ccccc2)cc1 (stereo not drawn) [Compound 43, 2-[3-[(Biphenyl-4-carbonyl)amino]-5-(1H-indol-5-yl)-2-oxo-2H-pyridin-1-yl]-3-(4-chlorophenyl)propionic acid] | > 100 | 28 | 1.9
9 | O=C(Nc1cc(-c2cccc(O)c2)cn(C(Cc2ccc(Cl)cc2)C(=O)O)c1=O)c1ccc(C(F)(F)F)cc1 (stereo not drawn) [Compound 30, 3-(4-Chlorophenyl)-2-[5-(3-hydroxyphenyl)-2-oxo-3-(4-trifluoromethyl-benzoylamino)-2H-pyridin-1-yl]propionic acid] | 33.4 | > 100 | 19.3
10 | O=C(Nc1cc(-c2cccc3ccccc23)cn([C@@H](Cc2ccccc2)C(=O)O)c1=O)c1ccc(C(F)(F)F)cc1 [Compound 1, (S)-2-[5-Naphthalen-1-yl-2-oxo-3-(4-trifluoromethylbenzoylamino)-2H-pyridin-1-yl]-3-phenylpropionic acid] | 82.8 | 82.8 | 14.4
11 | O=C(Nc1cc(-c2ccc(Cl)cc2)cn(C(Cc2ccc(Cl)cc2)C(=O)O)c1=O)c1ccc(-c2ccccc2)cc1 (stereo not drawn) [Compound 33, 2-[3-[(Biphenyl-4-carbonyl)amino]-5-(4-chlorophenyl)-2-oxo-2H-pyridin-1-yl]-3(4-chlorophenyl)propionic acid] | 39 | > 50 | 7.6
12 | CN(C)c1ccc(-c2cc(NC(=O)c3ccc(Oc4ccccc4)cc3)c(=O)n(C(Cc3ccc(Cl)cc3)C(=O)O)c2)cc1 (stereo not drawn) [Compound 53, 3-(4-Chlorophenyl)-2-[5-(4-dimethylaminophenyl)-2-oxo-3-(4-phenoxy-benzoylamino)-2H-pyridin-1-yl]propionic acid] | > 100 | 49 | 3.6
13 | O=C(Nc1cc(-c2ccc(F)cc2)cn(C(Cc2ccc(Cl)cc2)C(=O)O)c1=O)c1ccc(Oc2ccccc2)cc1 (stereo not drawn) [Compound 51, 3-(4-Chlorophenyl)-2-[5-(4-fluorophenyl)-2-oxo-3-(4-phenoxybenzoylamino)-2H-pyridin 1-yl]propionic acid] | > 100 | > 100 | 4.9
14 | O=C(Nc1cc(-c2cccc(C(F)(F)F)c2)cn(C(Cc2ccc(Cl)cc2)C(=O)O)c1=O)c1ccc(-c2ccccc2)cc1 (stereo not drawn) [Compound 22, 2-[3-[(Biphenyl-4-carbonyl)amino]-2-oxo-5-(3-trifluoromethylphenyl)-2H-pyridin-1-yl]-3-(4-chlorophenyl)propionic acid] | 38.3 | > 100 | 3.4
15 | O=C(Nc1cc(-c2ccc(Cl)c(Cl)c2)cn(C(Cc2ccc(Cl)cc2)C(=O)O)c1=O)c1ccc(C(F)(F)F)cc1 (stereo not drawn) [Compound 20, 3-(4-Chlorophenyl)-2-[5-(3,4-dichloro-phenyl)-2-oxo-3-(4-trifluoromethyl-benzoylamino)-2H-pyridin-1-yl]propionic acid] | > 100 | > 100 | 2.7
16 | O=C(Nc1cc(-c2ccccc2Oc2ccccc2)cn(C(Cc2ccc(Cl)cc2)C(=O)O)c1=O)c1ccc(-c2ccccc2)cc1 (stereo not drawn) [Compound 49, 2-[3-[(Biphenyl-4-carbonyl)amino]-2-oxo-5-(2-phenoxyphenyl)-2H-pyridin-1-yl]-3-(4-chlorophenyl)propionic acid] | 48 | 46.3 | < 0.8
17 | O=C(Nc1cc(-c2ccccc2Oc2ccccc2)cn([C@@H](COCc2ccccc2)C(=O)O)c1=O)c1ccc(C(F)(F)F)cc1 [Compound 10, (S)-3-Benzyloxy-2-[2-oxo-5-(2-phenoxyphenyl)-3-(4-trifluoromethyl-benzoylamino)-2H-pyridin-1-yl]propionic acid] | 37.4 | > 100 | 27
18 | O=C(Nc1cc(-c2ccc(F)cc2)cn(C(Cc2ccc(Cl)cc2)C(=O)O)c1=O)c1ccc(-c2ccccc2)cc1 (stereo not drawn) [Compound 35, 2-[3-[(Biphenyl-4-carbonyl)amino]-5-(4-fluorophenyl)-2-oxo-2H-pyridin-1-yl]-3-(4-chlorophenyl)propionic acid] | 58.4 | 7.5 | 2.3
19 | O=C(Nc1cc(-c2ccc(Oc3ccccc3)cc2)cn(C(CSCc2ccccc2)C(=O)O)c1=O)c1ccc(C(F)(F)F)cc1 (stereo in doubt) [Compound 15, (R)-3-Benzylsulfanyl-2-[2-oxo-5-(4-phenoxyphenyl)-3-(4-trifluoromethyl-benzoylamino)-2H-pyridin-1-yl]propionic acid] | 67.9 | 83.4 | 9.1
